According to patent US7476666B2, “HIV integrase inhibitors” (Merck & Co., Inc., priority 2004, dated 2009):

The compounds below were run on acute HIV infection of T-lymphoid cells (assay: Inhibition of acute HIV infection of T-lymphoid cells (spread assay)). Details: Human immunodeficiency virus 1.
Format: cell-based
Description: An assay for the inhibition of acute HIV infection of T-lymphoid cells (alternatively referred to herein as the “spread assay”) was conducted in accordance with Vacca, J. P. et al., Proc. Natl. Acad. Sci. USA 1994, 91: 4096.

Structure (SMILES)	IC95 [µM]
CN1CC(c2ccccc2)n2nc(C(=O)NCc3ccc(F)cc3)c(O)c2C1=O (centres unmarked) [Example 2, N-(4-Fluorobenzyl)-3-hydroxy-5-methyl-4-oxo-7-phenyl-4,5,6,7-tetrahydropyrazolo[1,5-a]pyrazine-2-carboxamide]	≤ 10
CNC(=O)c1cc(F)ccc1CNC(=O)c1nn2c(c1O)C(=O)N(C)CC2c1ccccc1 (centres unmarked) [Example 3, N-(4-Fluoro-2-[(methylamino)carbonyl]benzyl)-3-hydroxy-5-methyl-4-oxo-7-phenyl-4,5,6,7-tetrahydropyrazolo[1,5-a]pyrazine-2-carboxamide]	≤ 10
CNC(=O)c1nn2c(c1O)C(=O)N(Cc1ccc(F)cc1)CC2c1ccccc1 (centres unmarked) [Example 4, 5-(4-Fluorobenzyl)-3-hydroxy-N-methyl-4-oxo-7-phenyl-4,5,6,7-tetrahydropyrazolo[1,5-a]pyrazine-2-carboxamide]	≤ 10
CC1Cn2nc(C(=O)NCc3ccc(F)cc3)c(O)c2C(=O)N1C (centres unmarked) [Example 5, 5,6-Dimethyl-N-(4-fluorobenzyl)-3-hydroxy-4-oxo-4,5,6,7-tetrahydropyrazolo[1,5-a]pyrazine-2-carboxamide]	≤ 10
CN1CC(C(=O)N2CCCCC2)n2nc(C(=O)NCc3ccc(F)cc3)c(O)c2C1=O (centres unmarked) [Example 7, N-(4-Fluorobenzyl)-3-hydroxy-5-methyl-4-oxo-7-(piperidin-1-ylcarbonyl)-4,5,6,7-tetrahydropyrazolo[1,5-a]pyrazine-2-carboxamide]	≤ 10
CN(C)C(=O)C1(C)CN(C)C(=O)c2c(O)c(C(=O)NCc3ccc(F)cc3)nn21 (centres unmarked) [Example 8, 5,7-Dimethyl-N-(4-fluorobenzyl)-3-hydroxy-7-(dimethylaminocarbonyl)-4-oxo-4,5,6,7-tetrahydropyrazolo[1,5-a]pyrazine-2-carboxamide]	≤ 10
CN1CC(CN2CCCCC2)n2nc(C(=O)NCc3ccc(F)cc3)c(O)c2C1=O (centres unmarked) [Example 9, N-(4-fluorobenzyl)-3-hydroxy-5-methyl-4-oxo-7-(piperidin-1-ylmethyl)-4,5,6,7-tetrahydropyrazolo[1,5-a]pyrazine-2-carboxamide]	≤ 10
Cc1cn(C)c(=O)c2c(O)c(C(=O)NCc3ccc(F)cc3)nn12 [Example 10, 5,7-Dimethyl-N-(4-fluorobenzyl)-3-hydroxy-4-oxo-4,5-dihydropyrazolo[1,5-a]pyrazine-2-carboxamide]	≤ 10
Cc1csc(C2CN(C)C(=O)c3c(O)c(C(=O)NCc4ccc(F)cc4)nn32)n1 (centres unmarked) [Example 11, N-(4-Fluorobenzyl)-3-hydroxy-5-methyl-7-(4-methyl-1,3-thiazol-2-yl)-4-oxo-4,5,6,7-tetrahydropyrazolo[1,5-a]pyrazine-2-carboxamide]	≤ 10
Cc1nc(C2CN(C)C(=O)c3c(O)c(C(=O)NCc4ccc(F)cc4)nn32)cs1 (centres unmarked) [Example 12, N-(4-Fluorobenzyl)-3-hydroxy-5-methyl-(2-methyl-1,3-thiazol-4-yl)-4-oxo-4,5,6,7-tetrahydropyrazolo[1,5-a]pyrazine-2-carboxamide]	≤ 10
CN(Cc1ccc(F)cc1)C(=O)c1nn2c(c1O)C(=O)N(C)CC2 [Example 13, 2-[4-fluorobenzyl(methyl)aminocarbonyl]-3-hydroxy-5-methyl-4-oxo-4,5,6,7-tetrahydropyrazolo[1,5-a]pyrazine-2-carboxamide]	≤ 10
CN1CCn2nc(C(=O)NCc3ccc(F)cc3S(C)(=O)=O)c(O)c2C1=O [Example 15, N-[4-Fluoro-2-(methylsulfonyl)benzyl]-3-hydroxy-5-methyl-4-oxo-4,5,6,7-tetrahydropyrazolo[1,5-a]pyrazine-2-carboxamide]	≤ 10
O=C(NCc1ccc(Cl)c(Cl)c1)c1nn2c(c1O)C(=O)N(CC(=O)N1CCOCC1)CC2 [Example 20, N-(3,4-Dichlorobenzyl)-3-hydroxy-5-[2-(4-morpholinyl)-2-oxoethyl]-4-oxo-4,5,6,7-tetrahydropyrazolo[1,5-a]pyrazine-2-carboxamide]	≤ 10
O=C(NCc1ccc(Cl)c(Cl)c1)c1nn2c(c1O)C(=O)N(CC1CC1)CC2 [Example 21, 5-Cyclopropylmethyl-N-(3,4-dichlorobenzyl)-3-hydroxy-4-oxo-4,5,6,7-tetrahydropyrazolo[1,5-a]pyrazine-2-carboxamide]	≤ 10
O=C(NCc1ccc(Cl)c(Cl)c1)c1nn2c(c1O)C(=O)N(CCN1CCOCC1)CC2 [Example 22, N-(3,4-Dichlorobenzyl)-3-hydroxy-5-[2-(4-morpholinyl)ethyl]-4-oxo-4,5,6,7-tetrahydropyrazolo[1,5-a]pyrazine-2-carboxamide]	≤ 10
O=C(NCCN1CCOCC1)c1nn2c(c1O)C(=O)N(Cc1ccc(F)cc1)CC2 [Example 23, 5-(4-Fluorobenzyl)-3-hydroxy-N-[2-(4-morpholinyl)ethyl]-4-oxo-4,5,6,7-tetrahydropyrazolo[1,5-a]pyrazine-2-carboxamide]	≤ 10

Structure (SMILES)	IC95 [µM]
CCCCNC(=O)c1nn2c(c1O)C(=O)N(Cc1ccc(F)cc1)CC2 [Example 24, N-Butyl-5-(4-fluorobenzyl)-3-hydroxy-4-oxo-4,5,6,7-tetrahydropyrazolo[1,5-a]pyrazine-2-carboxamide]	≤ 10
O=C(c1nn2c(c1O)C(=O)N(Cc1ccc(F)cc1)CC2)N1CCC1 [Example 27, 2-(Azetidin-1-ylcarbonyl)-5-(4-fluorobenzyl)-3-hydroxy-4-oxo-4,5,6,7-tetrahydropyrazolo[1,5-a]pyrazine]	≤ 10
O=C(NCc1ccc(F)cc1)c1nn2c(c1O)C(=O)NCCC2 [Example 29, N-(4-Fluorobenzyl)-3-hydroxy-4-oxo-5,6,7,8-tetrahydro-4H-pyrazolo[1,5-a][1,4]diazepine-2-carboxamide]	≤ 10
COC(=O)c1nn2c(c1O)C(=O)N(Cc1ccc(F)cc1)CCC2 [Example 30, Methyl 5-(4-Fluorobenzyl)-3-hydroxy-4-oxo-5,6,7,8-tetrahydro-4H-pyrazolo[1,5-a][1,4]diazepine-2-carboxylate]	≤ 10
CN1CC(c2cccnc2)n2nc(C(=O)NCc3ccc(F)cc3)c(O)c2C1=O (centres unmarked) [Example 31, N-(4-fluorobenzyl)-3-hydroxy-5-methyl-4-oxo-7-pyridin-3-yl-4,5,6,7-tetrahydropyrazolo[1,5-a]pyrazine-2-carboxamide]	≤ 10
Cn1c(=O)c2c(O)c(C(=O)NCc3ccc(F)cc3)nn2c2ccccc21 [Example 32, N-(4-fluorobenzyl)-3-hydroxy-5-methyl-4-oxo-4,5-dihydropyrazolo[1,5-a]quinoxaline-2-carboxamide]	≤ 10
CNC(=O)c1cc(F)ccc1CNC(=O)c1nn2c(c1O)C(=O)N(C)C[C@@H]2c1ccccc1 [Example 33, (7S)—N-{4-Fluoro-2-[(methylamino)carbonyl]benzyl}-3-hydroxy-5-methyl-4-oxo-7-phenyl-4,5,6,7-tetrahydropyrazolo[1,5-a]pyrazine-2-carboxamide]	≤ 10
CNC(=O)c1cc(F)ccc1CNC(=O)c1nn2c(c1O)C(=O)N(C)C[C@H]2c1ccccc1 [Example 34, (7R)-N-{4-Fluoro-2-[(methylamino)carbonyl]benzyl}-3-hydroxy-5-methyl-4-oxo-7-phenyl-4,5,6,7-tetrahydropyrazolo[1,5-a]pyrazine-2-carboxamide]	≤ 10
CN1C[C@@H](c2ccccc2)n2nc(C(=O)NCc3ccc(F)cc3C(=O)NC3CC3)c(O)c2C1=O [Example 35, (7R)-N-{2-[(Cyclopropylamino)carbonyl]-4-fluorobenzyl}-3-hydroxy-5-methyl-4-oxo-7-phenyl-4,5,6,7-tetrahydropyrazolo[1,5-a]pyrazine-2-carboxamide]	≤ 10
CN1C[C@H](c2ccccc2)n2nc(C(=O)NCc3ccc(F)cc3C(=O)NC3CC3)c(O)c2C1=O [Example 36, (7S)-N-{2-[(Cyclopropylamino)carbonyl]-4-fluorobenzyl}-3-hydroxy-5-methyl-4-oxo-7-phenyl-4,5,6,7-tetrahydropyrazolo[1,5-a]pyrazine-2-carboxamide]	≤ 10
CN(C)C(=O)c1cc(F)ccc1CNC(=O)c1nn2c(c1O)C(=O)N(C)C[C@H]2c1ccccc1 [Example 37, (7R)-N-{2-[(Dimethylamino)carbonyl]-4-fluorobenzyl}-3-hydroxy-5-methyl-4-oxo-7-phenyl-4,5,6,7-tetrahydropyrazolo[1,5-a]pyrazine-2-carboxamide]	≤ 10
CN(C)C(=O)c1cc(F)ccc1CNC(=O)c1nn2c(c1O)C(=O)N(C)C[C@@H]2c1ccccc1 [Example 38, (7S)-N-{2-[(Dimethylamino)carbonyl]-4-fluorobenzyl}-3-hydroxy-5-methyl-4-oxo-7-phenyl-4,5,6,7-tetrahydropyrazolo[1,5-a]pyrazine-2-carboxamide]	≤ 10
CCNC(=O)c1cc(F)ccc1CNC(=O)c1nn2c(c1O)C(=O)N(C)C[C@H]2c1ccccc1 [Example 39, (7R)-N-{2-[(Ethylamino)carbonyl]-4-fluorobenzyl}-3-hydroxy-5-methyl-4-oxo-7-phenyl-4,5,6,7-tetrahydropyrazolo[1,5-a]pyrazine-2-carboxamide]	≤ 10
CCNC(=O)c1cc(F)ccc1CNC(=O)c1nn2c(c1O)C(=O)N(C)C[C@@H]2c1ccccc1 [Example 40, (7S)-N-{2-[(Ethylamino)carbonyl]-4-fluorobenzyl}-3-hydroxy-5-methyl-4-oxo-7-phenyl-4,5,6,7-tetrahydropyrazolo[1,5-a]pyrazine-2-carboxamide]	≤ 10
CN1C[C@@H](c2ccccc2)n2nc(C(=O)NCc3ccc(F)cc3C(N)=O)c(O)c2C1=O [Example 41, (7R)-N-[2-(Aminocarbonyl)-4-fluorobenzyl]-3-hydroxy-5-methyl-4-oxo-7-phenyl-4,5,6,7-tetrahydropyrazolo[1,5-a]pyrazine-2-carboxamide]	≤ 10
CN1C[C@H](c2ccccc2)n2nc(C(=O)NCc3ccc(F)cc3C(N)=O)c(O)c2C1=O [Example 42, (7S)-N-[2-(Aminocarbonyl)-4-fluorobenzyl]-3-hydroxy-5-methyl-4-oxo-7-phenyl-4,5,6,7-tetrahydropyrazolo[1,5-a]pyrazine-2-carboxamide]	≤ 10
